Like-named read-outs stand apart in the source and are kept apart here.
Tests used:
EED (1-441)-His protein = molecular target: T1, EED (1-441)-His protein (Homo sapiens, UniProt O75530); assay: EED-H3K27Me3 peptide competition binding assay by AlphaScreen
T1 construct: 30 nM EED (1-441)-His protein
In short: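 Serially diluted compound (12 points, 3-fold) incubated 20 min with 30 nM EED(1-441)-His and 15 nM biotin-H3K27Me3(19-33) peptide in 25 mM HEPES pH 8, 0.02% Tween-20, 0.5% BSA. Ni-chelate acceptor/streptavidin donor beads (10 μg/mL each) added, 1 h rt dark; 615 nm emission normalized to controls, dose-response fit for IC50.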

[1] = system: H3K27 methylation in G401 cell; assay: ELISA (H3K27 methylation) assay in G401 cells; format: cell-based, human; conditions: Homo sapiens
In short: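 G401 cells treated 48 h with 3-fold dilutions (8 or 12 points, top 20 μM). Acid-extracted histones probed by ELISA for H3K27me3 or H3K27me2 with ECL readout, normalized to total H3. Percent inhibition versus DMSO fitted to dose-response curve for IC50.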

[2] = read-out: (a) IC50, EED Alphascreen binding Qualified
[3] = G-401, read-out: (c) IC50, ELISA Qualified
[4] = EED-H3K27Me3 peptide competition, AlphaScreen, read-out: (a) IC50 EED Alphascreen binding Qualified
[5] = G-401, H3K27 methylation ELISA, read-out: (c) IC50 ELISA Qualified

T1 sequence (O75530 whole entry): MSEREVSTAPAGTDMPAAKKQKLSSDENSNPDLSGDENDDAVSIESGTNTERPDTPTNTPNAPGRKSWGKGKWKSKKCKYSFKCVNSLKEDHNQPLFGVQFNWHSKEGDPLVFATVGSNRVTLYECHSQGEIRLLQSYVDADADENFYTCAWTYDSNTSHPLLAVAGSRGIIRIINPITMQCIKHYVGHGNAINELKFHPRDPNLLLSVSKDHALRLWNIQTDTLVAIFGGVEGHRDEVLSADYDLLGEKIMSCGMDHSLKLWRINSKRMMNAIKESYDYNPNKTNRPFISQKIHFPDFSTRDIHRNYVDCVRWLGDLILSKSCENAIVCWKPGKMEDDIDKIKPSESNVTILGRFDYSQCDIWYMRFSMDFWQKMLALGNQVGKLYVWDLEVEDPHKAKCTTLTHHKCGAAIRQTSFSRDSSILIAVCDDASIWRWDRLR

Row | Compound | IC50 (EED (1-441)-His protein; [2]) | IC50 [1, 3] | also measured
1 | COc1ccc(F)cc1CNc1ccc(-c2ccncc2)c2nncn12 [Example 117, N-(5-fluoro-2-methoxybenzyl)-8-(pyridin-4-yl)-[1,2,4]triazolo[4,3-a]pyridin-5-amine] | 846 nM | 895 nM | –
2 | COc1ccc(F)c(CNc2ccc(-c3cccnc3)c3nncn23)c1 [Example 121, N-(2-fluoro-5-methoxybenzyl)-8-(pyridin-3-yl)-[1,2,4]triazolo[4,3-a]pyridin-5-amine] | 680 nM | 299 nM | –
3 | COc1ccccc1CNc1ccc(-c2ccccc2)c2nncn12 [Example 23, N-(2-methoxybenzyl)-8-phenyl-[1,2,4]triazolo[4,3-a] pyridin-5-amine] | 180 nM | 521 nM | –
4 | COc1cccc(F)c1CNc1ccc(-c2cc(F)c(N)cc2F)c2nncn12 [Example 208, 8-(4-amino-2,5-difluorophenyl)-N-(2-fluoro-6-methoxybenzyl)-[1,2,4]triazolo[4,3-a]pyridin-5-amine] | – | – | IC50 (EED (1-441)-His protein; [4]): 105 nM; IC50 [1, 5]: 140 nM
5 | COc1cc(F)ccc1CNc1ccc(-c2ccc(S(=O)(=O)C3CCN(C)CC3)cc2)c2nncn12 [Example 153, N-(4-fluoro-2-methoxybenzyl)-8-(4-((1-methylpiperidin-4-yl)sulfonyl)phenyl)-[1,2,4]triazolo[4,3-a] pyridin-5-amine] | 168 nM | 223 nM | –
6 | COc1cccc(F)c1CNc1ccc(-c2cnc(N3CCOCC3)nc2C)c2nncn12 [Example 261, N-(2-fluoro-6-methoxybenzyl)-8-(4-methyl-2-morpholinopyrimidin-5-yl)-[1,2,4]triazolo[4,3-a]pyridin-5-amine] | – | – | IC50 (EED (1-441)-His protein; [4]): 17.6 nM; IC50 [1, 5]: 7.8 nM
7 | COc1ccc(F)cc1CNc1ccc(-c2ccc(S(C)(=O)=O)nc2)c2nncn12 [Example 115, N-(5-fluoro-2-methoxybenzyl)-8-(6-(methylsulfonyl)pyridin-3-yl)-[1,2,4]triazolo[4,3-a] pyridin-5-amine] | 831 nM | 696 nM | –
8 | COc1cc(CNc2ccc(-c3ccc(CN(C)C)cc3)c3nncn23)c(F)cc1F [Example 98, N-(2,4-difluoro-5-methoxybenzyl)-8-(4-((dimethylamino)methyl)phenyl)-[1,2,4]triazolo[4,3-a] pyridin-5-amine] | 359 nM | 287 nM | –
9 | COc1ccccc1CNc1ccc(-c2ccc(CN3CCCC3=O)cc2)c2nncn12 [Example 55, 1-(4-(5-((2-methoxybenzyl)amino)-[1,2,4]triazolo[4,3-a]pyridin-8-yl)benzyl) pyrrolidin-2-one] | 15.1 nM | 44.1 nM | –
10 | COc1ccc(F)cc1CNc1ccc(-c2cccnc2)c2nncn12 [Example 118, N-(5-fluoro-2-methoxybenzyl)-8-(pyridin-3-yl)-[1,2,4]triazolo[4,3-a]pyridin-5-amine] | 1260 nM | 1270 nM | –
11 | COc1cccc(CNc2ccc(-c3cccnc3C)c3nncn23)n1 [Example 364, N-((6-methoxypyridin-2-yl)methyl)-8-(2-methylpyridin-3-yl)-[1,2,4]triazolo[4,3-a] pyridin-5-amine] | – | – | IC50 (EED (1-441)-His protein; read-out: (a) IC50 EED Alphascreen binding Qualified): 120 nM; IC50 ([1]; G-401, read-out: (c) IC50 ELISA Qualified): 80.6 nM
12 | COc1cccc(F)c1CNc1ccc(-c2cn(C(C)C)nc2C(F)(F)F)c2nncn12 [Example 255, N-(2-fluoro-6-methoxybenzyl)-8-(1-isopropyl-3-(trifluoromethyl)-1H-pyrazol-4-yl)-[1,2,4]triazolo[4,3-a] pyridin-5-amine] | – | – | IC50 (EED (1-441)-His protein; [4]): 189 nM; IC50 [1, 5]: 76.8 nM
13 | COc1cc(F)ccc1CNc1ccc(-c2cnc(N3CCN(C(C)C)CC3)c(Cl)c2)c2nncn12 [Example 97, 8-(5-chloro-6-(4-isopropylpiperazin-1-yl)pyridin-3-yl)-N-(4-fluoro-2-methoxybenzyl)-[1,2,4]triazolo[4,3-a] pyridin-5-amine] | 105 nM | 776 nM | –
14 | COc1cccc(F)c1CNc1ccc(-c2cncc(OCCS(C)(=O)=O)c2)c2nncn12 [Example 204, N-(2-fluoro-6-methoxybenzyl)-8-(5-(2-(methylsulfonyl)ethoxy)pyridin-3-yl)-[1,2,4]triazolo[4,3-a] pyridin-5-amine] | – | – | IC50 (EED (1-441)-His protein; [4]): 143 nM; IC50 [1, 5]: 95.8 nM
15 | COc1cc(F)ccc1CNc1ccc(-c2ccc(S(N)(=O)=O)cc2)c2nncn12 [Example 89, 4-(5-((4-fluoro-2-methoxybenzyl)amino)-[1,2,4]triazolo[4,3-a]pyridin-8-yl)benzenesulfonamide] | 132 nM | 1480 nM | –
16 | COc1c(F)cccc1CNc1ccc(-c2ccc(CN(C)C)cc2)c2nncn12 [Example 86, 8-(4-((dimethylamino)methyl)phenyl)-N-(3-fluoro-2-methoxybenzyl)-[1,2,4] triazolo[4,3-a]pyridin-5-amine] | 218 nM | 529 nM | –

Row | Compound | IC50 (EED (1-441)-His protein; [2]) | IC50 [1, 3] | also measured
17 | COc1cccc(F)c1CNc1ccc(-c2cnc(N3CCOCC3)cc2C)c2nncn12 [Example 262, N-(2-fluoro-6-methoxybenzyl)-8-(4-methyl-6-morpholinopyridin-3-yl)-[1,2,4]triazolo[4,3-a]pyridin-5-amine] | – | – | IC50 (EED (1-441)-His protein; [4]): 12.4 nM; IC50 [1, 5]: 15.6 nM
18 | CN(C)Cc1ccc(-c2ccc(NCc3ccc(F)cc3)n3cnnc23)cc1 [Example 37, 8-(4-((dimethylamino)methyl)phenyl)-N-(4-fluorobenzyl)-[1,2,4]triazolo[4,3-a] pyridin-5-amine] | 1520 nM | 1800 nM | –
19 | COc1cccc(F)c1CNc1ccc(-c2ccc(Cl)cc2Cl)c2nncn12 [Example 224, 8-(2,4-dichlorophenyl)-N-(2-fluoro-6-methoxybenzyl)-[1,2,4]triazolo[4,3-a]pyridin-5-amine] | – | – | IC50 (EED (1-441)-His protein; [4]): 137 nM; IC50 [1, 5]: 220 nM
20 | COc1c(F)cccc1CNc1ccc(-c2ccncc2)c2nncn12 [Example 137, N-(3-fluoro-2-methoxybenzyl)-8-(pyridin-4-yl)-[1,2,4]triazolo[4,3-a]pyridin-5-amine] | 344 nM | 733 nM | –
21 | COc1c(F)cccc1CNc1ccc(-c2cccnc2)c2nncn12 [Example 144, N-(3-fluoro-2-methoxybenzyl)-8-(pyridin-3-yl)-[1,2,4]triazolo[4,3-a]pyridin-5-amine] | 1270 nM | 986 nM | –
22 | COc1ccc(F)cc1CNc1ccc(-c2ccc(S(C)(=O)=O)cc2)c2nncn12 [Example 116, N-(5-fluoro-2-methoxybenzyl)-8-(4-(methylsulfonyl)phenyl)-[1,2,4]triazolo[4,3-a]pyridin-5-amine] | 276 nM | 748 nM | –
23 | COc1cccc(F)c1CNc1ccc(-c2cnn(C)c2)c2nncn12 [Example 125, N-(2-fluoro-6-methoxybenzyl)-8-(1-methyl-1H-pyrazol-4-yl)-[1,2,4] triazolo[4,3-a]pyridin-5-amine] | 153 nM | 173 nM | –
24 | COc1cc(F)cc(F)c1CNc1c(F)cc(-c2cccnc2C)c2nncn12 [Example 320, N-(2,4-difluoro-6-methoxybenzyl)-6-fluoro-8-(2-methylpyridin-3-yl)-[1,2,4]triazolo [4,3-a]pyridin-5-amine] | – | – | IC50 (EED (1-441)-His protein; [4]): 425 nM; IC50 [1, 5]: 434 nM
25 | COc1cccc(F)c1CNc1ccc(-c2ccc(S(=O)(=O)N(C)C)cc2)c2nncn12 [Example 79, 4-(5-((2-fluoro-6-methoxybenzyl)amino)-[1,2,4]triazolo[4,3-a]pyridin-8-yl)-N,N-dimethylbenzene sulfonamide] | 116 nM | 78.5 nM | –
26 | CN(C)Cc1ccc(-c2ccc(NCc3cccnc3)n3cnnc23)cc1 [Example 48, 8-(4-((dimethylamino)methyl)phenyl)-N-(pyridin-3-ylmethyl)-[1,2,4]triazolo[4,3-a]pyridin-5-amine] | 4230 nM | 2280 nM | –
27 | COc1ccc(F)c(F)c1CNc1ccc(-c2cccnc2)c2nncn12 [Example 242, N-(2,3-difluoro-6-methoxybenzyl)-8-(pyridin-3-yl)-[1,2,4]triazolo[4,3-a]pyridin-5-amine] | – | – | IC50 (EED (1-441)-His protein; [4]): 177 nM; IC50 [1, 5]: 454 nM
28 | COc1cc(F)cc(CNc2ccc(-c3ccc(CN(C)C)cc3)c3nncn23)c1 [Example 171, 8-(4-((dimethylamino)methyl)phenyl)-N-(3-fluoro-5-methoxybenzyl)-[1,2,4]triazolo[4,3-a]pyridin-5-amine] | 839 nM | 1100 nM | –
29 | COc1c(F)cccc1CNc1ccc(-c2ccc(S(=O)(=O)C3CCN(C)CC3)cc2)c2nncn12 [Example 138, N-(3-fluoro-2-methoxybenzyl)-8-(4-((1-methylpiperidin-4-yl)sulfonyl)phenyl)-[1,2,4] triazolo[4,3-a]pyridin-5-amine] | 1270 nM | 2900 nM | –
30 | COc1ccccc1CNc1ccc(-c2ccccc2C)c2nncn12 [Example 46, N-(2-methoxybenzyl)-8-(o-tolyl)-[1,2,4]triazolo[4,3-a] pyridin-5-amine] | 160 nM | 529 nM | –
31 | COc1ccccc1CNc1ccc(-c2c(C)nn(C)c2C)c2nncn12 [Example 110, N-(2-methoxybenzyl)-8-(1,3,5-trimethyl-1H-pyrazol-4-yl)-[1,2,4]triazolo[4,3-a] pyridin-5-amine] | 127 nM | 74.2 nM | –
32 | COc1cc(F)ccc1CNc1ccc(-c2ccc(NS(C)(=O)=O)cc2)c2nncn12 [Example 85, N-(4-(5-((4-fluoro-2-methoxybenzyl)amino)-[1,2,4]triazolo[4,3-a]pyridin-8-yl)phenyl)methane sulfonamide] | 186 nM | 1030 nM | –
